Measurements taken from ChEMBL document CHEMBL6177968, “Development of sulfamoylbenzamide-based capsid assembly modulators for hepatitis B virus capsid assembly” (Eur J Med Chem, 2025).

Legend:
Hepatitis B virus [1] = test: Antiviral activity against HBV in human HepG2.2.15 cells assessed as reduction in viral replication incubated for 5 days by real-time PCR analysis; assay type: functional, organism-based; details: HepG2.2.15, 120 h
[2] = Cytotoxicity in human HepG2.2.15 cells assessed as reduction in cell viability; assay type: toxicity, cell-based, HepG2 2.2.15
[3] = Selectivity index, ratio of CC50 for cytotoxicity in human HepG2.2.15 cells assessed as reduction in cell viability to EC50 for antiviral activity against HBV in human HepG2.2.15 cells assessed as reduction in viral replication; assay type: toxicity, cell-based; details: read-out: Ratio CC50/EC50
[4] = Metabolic stability in mouse liver microsomes assessed as compound remaining measured after 30 mins; assay type: ADME, Microsome; details: read-out: Stability
[5] = Metabolic stability in rat liver microsomes assessed as compound remaining measured after 30 mins; assay type: ADME, Microsome; details: read-out: Stability
[6] = Metabolic stability in human liver microsomes assessed as compound remaining measured after 30 mins; assay type: ADME, Microsome; details: read-out: Stability
[7] = Stability in mouse plasma assessed as compound remaining incubated for 4 hrs; assay type: ADME, cell-free; details: read-out: Stability
[8] = Stability in human plasma assessed as compound remaining incubated for 4 hrs; assay type: ADME, cell-free; details: read-out: Stability
[9] = Plasma protein binding in mouse; assay type: ADME, cell-free; details: read-out: PPB (converted)
[10] = Plasma protein binding in human; assay type: ADME, cell-free; details: read-out: PPB (converted)
[11] = Cytotoxicity in African green monkey Vero cells; assay type: toxicity, cell-based, Chlorocebus sabaeus
[12] = Cytotoxicity in HFL1 cells; assay type: toxicity, cell-based; details: human
[13] = Cytotoxicity in mouse L929 cells; assay type: toxicity, cell-based
[14] = Cytotoxicity in mouse NIH3T3 cells; assay type: toxicity, cell-based
[15] = Cytotoxicity in CHO-K1 cells; assay type: toxicity, cell-based, Cricetulus griseus; details: Chinese hamster
Cytochrome P450 1A2 = target: T1, Cytochrome P450 1A2 (Homo sapiens, UniProt P05177); test: Inhibition of CYP1A2 in human liver microsome; assay type: ADME, microsomes
T1 sequence (P05177 whole entry): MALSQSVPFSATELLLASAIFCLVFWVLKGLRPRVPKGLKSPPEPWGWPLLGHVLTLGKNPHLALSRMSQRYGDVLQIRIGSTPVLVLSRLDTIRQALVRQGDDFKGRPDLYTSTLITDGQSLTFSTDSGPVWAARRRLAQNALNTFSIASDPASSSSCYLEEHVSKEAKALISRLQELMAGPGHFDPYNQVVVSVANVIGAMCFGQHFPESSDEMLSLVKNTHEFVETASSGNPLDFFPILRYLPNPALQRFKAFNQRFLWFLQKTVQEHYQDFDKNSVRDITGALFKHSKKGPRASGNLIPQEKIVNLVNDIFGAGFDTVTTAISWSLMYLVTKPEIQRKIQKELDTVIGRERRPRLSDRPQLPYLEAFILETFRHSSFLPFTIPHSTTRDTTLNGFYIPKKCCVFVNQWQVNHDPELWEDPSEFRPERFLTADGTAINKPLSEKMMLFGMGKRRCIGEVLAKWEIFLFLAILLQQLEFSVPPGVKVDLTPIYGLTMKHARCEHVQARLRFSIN

Cytochrome P450 2C9 = Cytochrome P450 2C9 (Homo sapiens, UniProt P11712); test: Inhibition of CYP2C9 in human liver microsome; assay type: ADME, microsomes
Cytochrome P450 2C19 = Cytochrome P450 2C19 (Homo sapiens, UniProt P33261); test: Inhibition of CYP2C19 in human liver microsome; assay type: ADME, microsomes
Cytochrome P450 2D6 = Cytochrome P450 2D6 (Homo sapiens, UniProt P10635); test: Inhibition of CYP2D6 in human liver microsome; assay type: ADME, microsomes
Cytochrome P450 3A4 = Cytochrome P450 3A4 (Homo sapiens, UniProt P08684); test: Inhibition of CYP3A4 in human liver microsome; assay type: ADME, microsomes
[16] = target: Voltage-gated inwardly rectifying potassium channel KCNH2 (Homo sapiens, UniProt Q12809); test: Inhibition of human ERG; assay type: toxicity
Hepatitis B virus [17] = test: Antiviral activity against HBV in human HepG2 cells expressing NTCP assessed as reduction in viral replication; assay type: functional, organism-based
Hepatitis B virus [18] = test: Antiviral activity against HBV in human HepaRG cells assessed as reduction in viral replication; assay type: functional, organism-based
[19] = Cytotoxicity in human HepG2-hNTCP cells assessed as reduction in cell viability; assay type: toxicity, cell-based
[20] = Cytotoxicity in human HepaRG cells assessed as reduction in cell viability; assay type: toxicity, cell-based
[21] = Selectivity index, ratio of CC50 for cytotoxicity in human HepG2-hNTCP cells assessed as reduction in cell viability to EC50 for antiviral activity against HBV in human HepG2-hNTCP cells assessed as reduction in viral replication; assay type: toxicity, cell-based; details: read-out: Ratio CC50/EC50
[22] = Selectivity index, ratio of CC50 for cytotoxicity in human HepaRG cells assessed as reduction in cell viability to EC50 for antiviral activity against HBV in human HepaRG cells assessed as reduction in viral replication; assay type: toxicity, cell-based; details: read-out: Ratio CC50/EC50
[23] = Half life in male mouse at 5 mg/kg, iv; assay type: ADME, organism-based; details: in vivo
[24] = AUClast in male mouse at 5 mg/kg, iv; assay type: ADME, organism-based; details: in vivo
[25] = AUC (0 to infinity) in male mouse at 5 mg/kg, iv; assay type: ADME, organism-based; details: in vivo
[26] = Clearance in male mouse at 5 mg/kg, iv; assay type: ADME, organism-based; details: in vivo
[27] = Volume of distribution at steady state in male mouse at 5 mg/kg, iv; assay type: ADME, organism-based; details: in vivo, read-out: Vdss
[28] = Half life in male mouse at 20 mg/kg, iv; assay type: ADME, organism-based; details: in vivo
[29] = AUClast in male mouse at 20 mg/kg, iv; assay type: ADME, organism-based; details: in vivo
[30] = AUC (0 to infinity) in male mouse at 20 mg/kg, iv; assay type: ADME, organism-based; details: in vivo
[31] = Clearance in male mouse at 20 mg/kg, iv; assay type: ADME, organism-based; details: in vivo
[32] = Volume of distribution at steady state in male mouse at 20 mg/kg, iv; assay type: ADME, organism-based; details: in vivo, read-out: Vdss
[33] = Tmax in male mouse at 5 mg/kg, po; assay type: ADME, organism-based; details: in vivo
[34] = Cmax in male mouse at 5 mg/kg, po; assay type: ADME, organism-based; details: in vivo
[35] = Half life in male mouse at 5 mg/kg, po; assay type: ADME, organism-based; details: in vivo
[36] = AUClast in male mouse at 5 mg/kg, po; assay type: ADME, organism-based; details: in vivo
[37] = AUC (0 to infinity) in male mouse at 5 mg/kg, po; assay type: ADME, organism-based; details: in vivo
[38] = Oral bioavailability in male mouse at 5 mg/kg; assay type: ADME, organism-based; details: in vivo
[39] = Tmax in male mouse at 20 mg/kg, po; assay type: ADME, organism-based; details: in vivo
[40] = Cmax in male mouse at 20 mg/kg, po; assay type: ADME, organism-based; details: in vivo
[41] = Half life in male mouse at 20 mg/kg, po; assay type: ADME, organism-based; details: in vivo
[42] = AUClast in male mouse at 20 mg/kg, po; assay type: ADME, organism-based; details: in vivo
[43] = AUC (0 to infinity) in male mouse at 20 mg/kg, po; assay type: ADME, organism-based; details: in vivo
[44] = Oral bioavailability in male mouse at 20 mg/kg; assay type: ADME, organism-based; details: in vivo
Hepatitis B virus [45] = test: Antiviral activity against HBV infected in human HepG2 cells expressing NTCP assessed as viral DNA replication at 1 uM incubated for 6 days by Southern blot analysis (reference value: 100 %); assay type: functional; details: time 6 day
Hepatitis B virus [46] = test: Antiviral activity against HBV infected in human HepG2 cells expressing NTCP assessed as fold reduction in capsid associated viral DNA level at 1 uM incubated for 6 days by Southern blot analysis relative to control; assay type: functional; details: time 6 day
Hepatitis B virus [47] = test: Antiviral activity against HBV infected in human HepG2 cells expressing NTCP assessed as capsid level at 1 uM incubated for 6 days by Western blot analysis (reference value: 100 %); assay type: functional; details: time 6 day
Hepatitis B virus [48] = test: Antiviral activity against HBV infected in human HepG2 cells expressing NTCP assessed as capsid associated HBV DNA level at 1 uM incubated for 6 days by Western blot analysis (reference value: 100 %); assay type: functional; details: time 6 day
HepG2 [49] = test: Effect on viral rcDNA level in human HepG2 cells expressing NTCP infected with HBV at 1 uM incubated for 6 days by Southern blot analysis; assay type: functional, cell-based; details: time 6.0 day
HepG2 [50] = test: Effect on viral dslDNA level in human HepG2 cells expressing NTCP infected with HBV at 1 uM incubated for 6 days by Southern blot analysis; assay type: functional, cell-based; details: time 6.0 day
HepG2 [51] = test: Effect on viral ssDNA level in human HepG2 cells expressing NTCP cells infected with HBV at 1 uM incubated for 6 days by Southern blot analysis; assay type: functional, cell-based; details: time 6.0 day
Hepatitis B virus [52] = test: Antiviral activity against HBV infected in human HepG2 cells expressing NTCP assessed as fold increase in intracellular capsid level at 1 uM incubated for 6 days by Western blot analysis relative to control; assay type: functional; details: time 6 day
Hepatitis B virus [53] = test: Antiviral activity against HBV infected in human HepG2 cells expressing NTCP assessed as decrease in intracellular HBc level at 1 uM incubated for 6 days by indirect immunofluorescence staining based analysis; assay type: functional, organism-based; details: time 6.0 day
Hepatitis B virus [54] = test: Antiviral activity against HBV infected in human HepG2 cells expressing NTCP assessed as intracellular HBc level at 1 uM incubated for 6 days by Western blot analysis (reference value: 100 %); assay type: functional; details: time 6 day
Hepatitis B virus [55] = test: Antiviral activity against HBV infected in human HepG2 cells expressing NTCP assessed as ratio of capsid associated HBV DNA level at 1 uM incubated for 6 days by Western blot analysis (reference value: 100 %); assay type: functional; details: time 6 day

Chain of Cytochrome P450 2C9 (P11712 whole entry): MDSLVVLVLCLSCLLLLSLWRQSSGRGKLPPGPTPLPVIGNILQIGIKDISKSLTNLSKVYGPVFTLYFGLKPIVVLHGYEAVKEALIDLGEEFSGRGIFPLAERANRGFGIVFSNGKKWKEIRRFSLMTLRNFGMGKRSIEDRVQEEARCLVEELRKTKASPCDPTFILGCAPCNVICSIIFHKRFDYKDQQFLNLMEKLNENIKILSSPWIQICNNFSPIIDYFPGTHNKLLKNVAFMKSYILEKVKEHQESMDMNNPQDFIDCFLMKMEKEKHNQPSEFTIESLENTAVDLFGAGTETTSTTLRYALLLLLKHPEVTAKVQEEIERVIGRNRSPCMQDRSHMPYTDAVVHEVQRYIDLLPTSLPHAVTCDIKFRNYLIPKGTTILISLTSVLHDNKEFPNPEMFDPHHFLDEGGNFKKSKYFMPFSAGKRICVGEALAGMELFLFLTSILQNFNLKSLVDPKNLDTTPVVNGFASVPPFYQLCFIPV
Chain of Voltage-gated inwardly rectifying potassium channel KCNH2 (Q12809 whole entry): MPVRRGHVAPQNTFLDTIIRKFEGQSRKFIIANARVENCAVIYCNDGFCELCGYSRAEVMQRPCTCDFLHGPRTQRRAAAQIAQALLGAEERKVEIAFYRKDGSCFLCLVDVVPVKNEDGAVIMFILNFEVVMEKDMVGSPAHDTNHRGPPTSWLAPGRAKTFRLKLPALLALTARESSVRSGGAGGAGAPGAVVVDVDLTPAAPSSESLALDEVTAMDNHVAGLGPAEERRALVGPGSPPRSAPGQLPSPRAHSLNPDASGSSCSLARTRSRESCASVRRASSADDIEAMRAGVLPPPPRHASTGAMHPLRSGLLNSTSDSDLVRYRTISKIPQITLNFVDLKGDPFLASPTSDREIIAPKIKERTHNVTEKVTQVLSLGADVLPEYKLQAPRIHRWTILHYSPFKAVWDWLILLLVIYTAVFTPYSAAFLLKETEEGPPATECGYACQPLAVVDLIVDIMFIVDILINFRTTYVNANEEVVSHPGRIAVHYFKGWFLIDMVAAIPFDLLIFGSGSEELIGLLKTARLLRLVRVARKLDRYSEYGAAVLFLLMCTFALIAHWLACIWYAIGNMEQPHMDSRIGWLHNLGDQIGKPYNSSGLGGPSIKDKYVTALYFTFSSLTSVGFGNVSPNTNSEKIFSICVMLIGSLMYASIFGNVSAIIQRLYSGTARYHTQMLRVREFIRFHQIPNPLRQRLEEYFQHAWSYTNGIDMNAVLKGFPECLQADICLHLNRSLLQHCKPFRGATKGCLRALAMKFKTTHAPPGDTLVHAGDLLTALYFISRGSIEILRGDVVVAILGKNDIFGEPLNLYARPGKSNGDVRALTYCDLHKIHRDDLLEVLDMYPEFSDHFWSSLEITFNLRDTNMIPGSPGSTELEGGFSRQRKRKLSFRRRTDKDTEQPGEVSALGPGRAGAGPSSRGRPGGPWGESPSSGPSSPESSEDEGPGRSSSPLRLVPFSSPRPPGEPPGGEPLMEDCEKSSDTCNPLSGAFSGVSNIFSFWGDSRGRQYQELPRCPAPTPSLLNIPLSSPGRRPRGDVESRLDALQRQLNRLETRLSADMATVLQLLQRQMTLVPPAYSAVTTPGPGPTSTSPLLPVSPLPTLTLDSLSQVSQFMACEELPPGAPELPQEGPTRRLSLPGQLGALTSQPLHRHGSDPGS
Chain of Cytochrome P450 2D6 (P10635 whole entry): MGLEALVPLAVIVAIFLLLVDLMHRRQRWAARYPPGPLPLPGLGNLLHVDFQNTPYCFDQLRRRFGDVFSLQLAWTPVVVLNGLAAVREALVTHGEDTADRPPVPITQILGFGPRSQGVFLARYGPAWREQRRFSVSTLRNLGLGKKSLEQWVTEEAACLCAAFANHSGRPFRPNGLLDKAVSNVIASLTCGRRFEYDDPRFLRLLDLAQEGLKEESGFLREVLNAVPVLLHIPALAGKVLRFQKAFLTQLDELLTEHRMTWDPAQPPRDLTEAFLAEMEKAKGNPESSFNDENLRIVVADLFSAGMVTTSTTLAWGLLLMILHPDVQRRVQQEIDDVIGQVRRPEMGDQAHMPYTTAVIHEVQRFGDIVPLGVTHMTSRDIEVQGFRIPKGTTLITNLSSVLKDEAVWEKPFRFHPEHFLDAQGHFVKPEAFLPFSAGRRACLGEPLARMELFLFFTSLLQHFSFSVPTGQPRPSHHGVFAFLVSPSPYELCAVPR
Chain of Cytochrome P450 2C19 (P33261 whole entry): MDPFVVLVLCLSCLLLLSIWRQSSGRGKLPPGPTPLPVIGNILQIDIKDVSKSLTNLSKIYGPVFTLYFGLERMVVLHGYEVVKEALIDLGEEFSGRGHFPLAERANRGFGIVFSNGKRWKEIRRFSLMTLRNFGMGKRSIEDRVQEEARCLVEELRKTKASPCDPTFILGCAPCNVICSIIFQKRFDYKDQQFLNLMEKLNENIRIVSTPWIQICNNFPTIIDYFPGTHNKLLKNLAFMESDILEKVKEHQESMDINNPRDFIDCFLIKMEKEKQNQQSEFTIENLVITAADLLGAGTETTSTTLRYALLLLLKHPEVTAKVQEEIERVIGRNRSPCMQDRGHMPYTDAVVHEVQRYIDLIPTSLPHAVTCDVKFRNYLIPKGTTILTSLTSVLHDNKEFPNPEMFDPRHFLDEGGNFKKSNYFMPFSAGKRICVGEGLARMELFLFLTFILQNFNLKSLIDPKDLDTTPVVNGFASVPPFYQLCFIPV
Chain of Cytochrome P450 3A4 (P08684 whole entry): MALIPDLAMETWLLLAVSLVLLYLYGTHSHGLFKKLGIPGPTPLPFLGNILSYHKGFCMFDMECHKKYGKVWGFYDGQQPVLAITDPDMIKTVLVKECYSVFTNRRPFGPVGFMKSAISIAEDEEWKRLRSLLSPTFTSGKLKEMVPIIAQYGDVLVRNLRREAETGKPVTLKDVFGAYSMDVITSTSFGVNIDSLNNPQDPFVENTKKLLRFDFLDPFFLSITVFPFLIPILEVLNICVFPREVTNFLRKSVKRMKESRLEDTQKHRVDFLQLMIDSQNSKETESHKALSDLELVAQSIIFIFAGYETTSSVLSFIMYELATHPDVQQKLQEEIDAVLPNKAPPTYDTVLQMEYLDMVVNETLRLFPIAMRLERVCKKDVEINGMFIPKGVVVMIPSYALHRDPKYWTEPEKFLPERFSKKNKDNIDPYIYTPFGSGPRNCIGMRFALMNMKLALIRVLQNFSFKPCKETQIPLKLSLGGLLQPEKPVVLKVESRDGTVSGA

Nc1cc(F)c(S(=O)(=O)N[C@H]2CNC2=O)cc1C(=O)Nc1ccc(F)c(C(F)F)c1
EC50 (Hepatitis B virus [1]): 0.12 µM | CC50 [2]: 173 µM | selectivity ratio [3]: 1420 | remaining at 0.5 h [4]: 49% | remaining at 0.5 h [5]: 51% | remaining at 0.5 h [6]: 66.9% | remaining at 4 h [7]: 43.2% | remaining at 4 h [8]: 85.4% | fraction unbound [9]: 0.0555 | fraction unbound [10]: 0.115 | IC50 [11]: > 100 µM | IC50 [12]: > 100 µM | IC50 [13]: > 100 µM | IC50 [14]: > 100 µM | IC50 [15]: > 100 µM | IC50 (Cytochrome P450 1A2): > 100 µM | IC50 (Cytochrome P450 2C9): 31.1 µM | IC50 (Cytochrome P450 2C19): 44.5 µM | IC50 (Cytochrome P450 2D6): 29.9 µM | IC50 (Cytochrome P450 3A4): 26.1 µM | IC50 [16]: > 10 µM | EC50 (Hepatitis B virus [17]): 0.11 µM | EC50 (Hepatitis B virus [18]): 0.55 µM | CC50 [19]: > 100 µM | CC50 [20]: > 100 µM | selectivity ratio [21]: > 909 | selectivity ratio [22]: > 182 | half-life [23]: 2.37 h | AUC(0-t) [24]: 2390 ng·h/mL | AUC(0-inf) [25]: 2400 ng·h/mL | clearance [26]: 35.2 mL/min/kg | Vd [27]: 2.95 L/kg | half-life [28]: 5.15 h | AUC(0-t) [29]: 6880 ng·h/mL | AUC(0-inf) [30]: 6950 ng·h/mL | clearance [31]: 50.5 mL/min/kg | Vd [32]: 4.16 L/kg | Tmax [33]: 0.5 h | Cmax [34]: 280 ng/mL | half-life [35]: 2.8 h | AUC(0-t) [36]: 620 ng·h/mL | AUC(0-inf) [37]: 620 ng·h/mL | bioavailability [38]: 26% | Tmax [39]: 0.33 h | Cmax [40]: 900 ng/mL | half-life [41]: 5.52 h | AUC(0-t) [42]: 1510 ng·h/mL | AUC(0-inf) [43]: 1600 ng·h/mL | bioavailability [44]: 21.9% | Activity (Hepatitis B virus [45]): 13% | fold change (FC) (Hepatitis B virus [46]): 8 | Activity (Hepatitis B virus [47]): 183% | Activity (Hepatitis B virus [48]): 19% | Activity (HepG2 [49]): No effect | Activity (HepG2 [50]): No effect | Activity (HepG2 [51]): No effect | fold change (FC) (Hepatitis B virus [52]): ~2 | Activity (Hepatitis B virus [53]): Active; Compound Modestly Decreased Hbc Level | Activity (Hepatitis B virus [54]): 129% | Ratio (Hepatitis B virus [55]): 10%
